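Values below derive from 48-hour exposures of cells grown in 96-well plates, with endpoints linearly interpolated between the two concentrations bracketing the appropriate inhibition level. GI50: concentration for 50% inhibition of growth.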 The source made the active and inactive calls. Cut-off read from the data, not from the text of the source: active = GI50 up to about 1.1 µM and inactive = higher.
Tests used:
Assay in all cases: inhibition of tumour cell growth, NCI panel, 48 h
NCI-H460 = tested on: NCI-H460
SNB-75 = tested on: SNB-75
SF-539 = tested on: SF-539
UACC-257 = tested on: UACC-257
OVCAR-3 = tested on: OVCAR-3
M19-MEL = tested on: M19-MEL
IGROV-1 = tested on: IGROV-1
OVCAR-8 = tested on: OVCAR-8
SF-268 = tested on: SF-268
786-0 = tested on: 786-0
U-251 = tested on: U-251
HCC 2998 = tested on: HCC 2998
HCT-116 = tested on: HCT-116
ACHN = tested on: ACHN
SK-MEL-28 = tested on: SK-MEL-28
COLO 205 = tested on: COLO 205
NCI-H23 = tested on: NCI-H23
SK-MEL-5 = tested on: SK-MEL-5
HL-60 = tested on: HL-60
OVCAR-5 = tested on: OVCAR-5
RPMI-8226 = tested on: RPMI-8226
NCI-H226 = tested on: NCI-H226
SN12C = tested on: SN12C
HCT-15 = tested on: HCT-15
HOP-62 = tested on: HOP-62
K562 = tested on: K562
CCRF-CEM = tested on: CCRF-CEM
HT-29 = tested on: HT-29
CAKI-1 = tested on: CAKI-1
SF-295 = tested on: SF-295
DLD-1 = tested on: DLD-1
DMS-273 = tested on: DMS-273
SW-620 = tested on: SW-620
HOP-18 = tested on: HOP-18
A498 = tested on: A498
M14 = tested on: M14
SK-OV-3 = tested on: SK-OV-3
UACC-62 = tested on: UACC-62
SNB-19 = tested on: SNB-19
UO-31 = tested on: UO-31
KM12 = tested on: KM12
SNB-78 = tested on: SNB-78
NCI-H522 = tested on: NCI-H522
Malme-3M = tested on: Malme-3M
TK-10 = tested on: TK-10
KM-20L2 = tested on: KM-20L2
EKVX = tested on: EKVX
HOP-92 = tested on: HOP-92
LXFL 529 = tested on: LXFL 529
OVCAR-4 = tested on: OVCAR-4
MOLT-4 = tested on: MOLT-4
SK-MEL-2 = tested on: SK-MEL-2
A549 = tested on: A549
DMS-114 = tested on: DMS-114
LOX IMVI = tested on: LOX IMVI
SR = tested on: SR
RXF 393 = tested on: RXF 393
MDA-MB-435 = tested on: MDA-MB-435
MDA-N = tested on: MDA-N
NCI/ADR-RES = tested on: NCI/ADR-RES
PC-3 = tested on: PC-3
MDA-MB-231 = tested on: MDA-MB-231
MCF7 = tested on: MCF7
Hs-578T = tested on: Hs-578T
DU-145 = tested on: DU-145
T47D = tested on: T47D
BT-549 = tested on: BT-549

Measured: GI50

CCc1cccc(C)c1NC(=O)CCc1n[nH]c(=S)o1
inactive: NCI-H460 > 100 µM | SNB-75 > 100 µM | SF-539 > 100 µM | UACC-257 > 100 µM | OVCAR-3 > 100 µM | M19-MEL > 100 µM | IGROV-1 > 100 µM | OVCAR-8 > 100 µM | SF-268 > 100 µM | 786-0 > 100 µM | U-251 > 100 µM | HCC 2998 > 100 µM | HCT-116 16.1 µM | ACHN > 100 µM | SK-MEL-28 > 100 µM | COLO 205 44.6 µM | NCI-H23 > 100 µM | SK-MEL-5 > 100 µM | HL-60 > 100 µM | OVCAR-5 > 100 µM | RPMI-8226 21.6 µM | NCI-H226 > 100 µM | SN12C > 100 µM | HOP-62 > 100 µM | K562 66.8 µM | CCRF-CEM > 100 µM | HT-29 95.5 µM | CAKI-1 > 100 µM | SF-295 > 100 µM | DLD-1 44.4 µM | DMS-273 37.8 µM | SW-620 13.3 µM | HOP-18 > 100 µM | A498 > 100 µM | M14 > 100 µM | SK-OV-3 > 100 µM | UACC-62 > 100 µM | SNB-19 > 100 µM | UO-31 > 100 µM | KM12 > 100 µM | SNB-78 > 100 µM | NCI-H522 > 100 µM | Malme-3M > 100 µM | TK-10 > 100 µM | KM-20L2 > 100 µM | EKVX > 100 µM | HOP-92 > 100 µM | LXFL 529 > 100 µM | OVCAR-4 > 100 µM | MOLT-4 > 100 µM
55.1 µM: HCT-15

O=C(Cc1nc2ccccc2s1)C(=O)Nc1ccc(Cl)cc1
> 100 µM: HCT-15
inactive: NCI-H460 > 100 µM | SNB-75 > 100 µM | SF-539 > 100 µM | UACC-257 > 100 µM | SK-MEL-2 > 100 µM | OVCAR-3 > 100 µM | M19-MEL > 100 µM | IGROV-1 > 100 µM | OVCAR-8 > 100 µM | SF-268 > 100 µM | 786-0 > 100 µM | U-251 > 100 µM | HCC 2998 > 100 µM | HCT-116 > 100 µM | A549 > 100 µM | ACHN > 100 µM | DMS-114 > 100 µM | SK-MEL-28 > 100 µM | COLO 205 > 100 µM | NCI-H23 > 100 µM | SK-MEL-5 > 100 µM | HL-60 > 100 µM | LOX IMVI > 100 µM | OVCAR-5 > 100 µM | RPMI-8226 > 100 µM | NCI-H226 > 100 µM | SN12C > 100 µM | HOP-62 > 100 µM | K562 > 100 µM | HT-29 > 100 µM | CAKI-1 > 100 µM | SF-295 > 100 µM | DLD-1 > 100 µM | DMS-273 > 100 µM | SW-620 > 100 µM | HOP-18 > 100 µM | A498 > 100 µM | M14 > 100 µM | SK-OV-3 > 100 µM | UACC-62 > 100 µM | SNB-19 > 100 µM | UO-31 > 100 µM | KM12 > 100 µM | SNB-78 > 100 µM | NCI-H522 > 100 µM | Malme-3M > 100 µM | TK-10 > 100 µM | KM-20L2 > 100 µM | EKVX > 100 µM | HOP-92 > 100 µM | LXFL 529 > 100 µM | OVCAR-4 > 100 µM | MOLT-4 > 100 µM

O=[N+]([O-])C(=C1c2ccccc2-c2ccccc21)[N+](=O)[O-]
> 10 µM: HCT-15
inactive: NCI-H460 48 µM | SF-539 > 100 µM | UACC-257 52.8 µM | SK-MEL-2 > 100 µM | OVCAR-3 > 100 µM | IGROV-1 61.5 µM | OVCAR-8 > 100 µM | SF-268 20.9 µM | 786-0 > 100 µM | U-251 > 100 µM | SR > 100 µM | HCC 2998 70.5 µM | HCT-116 38 µM | A549 38.5 µM | ACHN 62.8 µM | SK-MEL-28 > 100 µM | COLO 205 > 100 µM | NCI-H23 > 10 µM | HL-60 29.2 µM | LOX IMVI 83.4 µM | OVCAR-5 91.2 µM | RPMI-8226 44 µM | NCI-H226 69.2 µM | SN12C > 100 µM | HOP-62 > 100 µM | K562 43.8 µM | CCRF-CEM 47.6 µM | HT-29 50.6 µM | CAKI-1 > 100 µM | SF-295 > 10 µM | DMS-273 > 10 µM | SW-620 64.7 µM | RXF 393 > 100 µM | A498 57.3 µM | M14 > 100 µM | UACC-62 49.3 µM | SNB-19 97.5 µM | UO-31 52.4 µM | KM12 57.5 µM | SNB-78 > 100 µM | NCI-H522 44.1 µM | TK-10 > 100 µM | KM-20L2 57.3 µM | EKVX > 100 µM | LXFL 529 41.3 µM | OVCAR-4 > 100 µM | MOLT-4 32.6 µM

Cc1c(-c2ccccc2)c(=O)oc2ccc(Cl)cc12
> 100 µM: HCT-15
inactive: NCI-H460 70.5 µM | SNB-75 16.1 µM | SF-539 38.2 µM | UACC-257 8.55 µM | SK-MEL-2 > 100 µM | OVCAR-3 > 100 µM | M19-MEL > 100 µM | IGROV-1 > 100 µM | OVCAR-8 53.3 µM | SF-268 90.2 µM | 786-0 36.5 µM | U-251 46.9 µM | SR > 100 µM | HCC 2998 > 100 µM | HCT-116 38.1 µM | A549 > 100 µM | DMS-114 26.6 µM | SK-MEL-28 > 100 µM | COLO 205 > 100 µM | NCI-H23 57.8 µM | SK-MEL-5 40.3 µM | HL-60 > 100 µM | LOX IMVI > 100 µM | OVCAR-5 > 100 µM | RPMI-8226 > 100 µM | NCI-H226 > 100 µM | SN12C > 100 µM | HOP-62 27.9 µM | K562 > 100 µM | CCRF-CEM > 100 µM | HT-29 > 100 µM | SF-295 > 100 µM | DLD-1 > 100 µM | DMS-273 87.1 µM | SW-620 > 100 µM | HOP-18 > 100 µM | A498 > 100 µM | M14 26.7 µM | SK-OV-3 34.4 µM | UACC-62 59.8 µM | SNB-19 63 µM | UO-31 > 100 µM | KM12 > 100 µM | SNB-78 26 µM | NCI-H522 33.7 µM | Malme-3M 99.3 µM | TK-10 33.3 µM | EKVX 64.7 µM | HOP-92 32.7 µM | LXFL 529 > 100 µM | OVCAR-4 53.3 µM | MOLT-4 > 100 µM

O=[N+]([O-])C(=C/c1cccs1)/C(=C\c1cccs1)[N+](=O)[O-]
active: NCI-H460 0.597 µM | SF-539 0.212 µM | MDA-MB-435 0.441 µM | IGROV-1 0.774 µM | OVCAR-8 0.342 µM | SF-268 0.861 µM | MDA-N 0.423 µM | 786-0 0.298 µM | U-251 0.397 µM | SR 0.0719 µM | NCI/ADR-RES 0.54 µM | PC-3 0.575 µM | HCT-116 1.11 µM | MDA-MB-231 0.44 µM | ACHN 0.543 µM | SK-MEL-28 0.395 µM | COLO 205 0.429 µM | NCI-H23 0.787 µM | SK-MEL-5 1.08 µM | HL-60 0.0246 µM | LOX IMVI 0.209 µM | MCF7 0.676 µM | RPMI-8226 0.267 µM | SN12C 0.547 µM | K562 0.272 µM | CCRF-CEM 0.0263 µM | CAKI-1 0.465 µM | SW-620 0.348 µM | RXF 393 0.157 µM | M14 1.04 µM | UACC-62 0.778 µM | NCI-H522 0.327 µM | Malme-3M 1.03 µM | TK-10 0.962 µM | HOP-92 0.802 µM | MOLT-4 0.157 µM
inactive: SNB-75 9.46 µM | UACC-257 1.29 µM | SK-MEL-2 1.75 µM | OVCAR-3 1.85 µM | HCC 2998 1.21 µM | A549 2.27 µM | OVCAR-5 1.68 µM | NCI-H226 2.77 µM | HOP-62 2.47 µM | HT-29 1.12 µM | SF-295 1.96 µM | Hs-578T 1.13 µM | A498 1.64 µM | SK-OV-3 2.89 µM | DU-145 1.43 µM | SNB-19 1.98 µM | UO-31 1.2 µM | KM12 2.34 µM | EKVX 2.29 µM | T47D 1.68 µM | BT-549 1.35 µM | OVCAR-4 1.87 µM
0.199 µM: HCT-15

Source: ChEMBL document CHEMBL1201862, “PubChem BioAssay data set” (2004)
